Reference: patent publication US20240287089A1, “Preparation and Uses of 7-Azaindenoisoquinolines” (Purdue Research Foundation, priority 0001, published 2024)

How the values were obtained:
[1] = biological target: 3′-TAMRA-labeled MycG4 DNA; experiment: Fluorescence binding assay; details: 20° C., 100 mM K+ buffer, pH 7.0; read-out: Apparent Binding Affinity Kd, app
[2] = test system: RAJI lymphoma cells; experiment: MTS cell viability IC50 assay; format: cell-based; details: RAJI, 72 h
Experimental: Cytotoxicity Results in Raji Non-Hodgkin's Lymphoma Cells. MTS experiments were then conducted to test the anti-proliferative effects of 7-aza-8,9-methylenedioxyindenoisoquinolines in Raji cells. Cells were incubated at 2-2000 nM of each drug for 72 h, and cell viabilities were quantified using the MTS assay. […] This potency trend generally correlated with the western blot results, in which G106 and G108 […] show weaker Myc downregulation.
MTS Cell Viability IC50 Assay. Drug solutions for MTS IC50 assays of suspension cell lines were made from DMSO stocks by serial-dilutions in 1×PBS (10010-031, Gibco). To set up treatments, drug solutions were plated in triplicates to 96-well tissue culture plates, to which cell-containing media was added to a total volume of 100 μL/well. 100%-viability controls were untreated cells. 2000 cells/well were plated for all suspension cell lines except 3000 cells/well for KMS-27 and 10000 cells/well for CHLA-32. Blanks were cell-free media. Drug treatments were maintained for 72 hr at 37° C. with 5% CO2. To quantify cells, CellTiter 96 AQueous MTS Reagent Powder (G1111, Promega) was dissolved and mixed with phenazine methosulfate (PMS, Sigma-Aldrich P9625) according to manufacturer's instructions. MTS/PMS mix ([…]) was added to treatment wells, 100%-viability control wells, and blank wells. Colors were developed at 37° C. with 5% CO2 for 4 h and absorbance at 490 nm was measured by BioTek Synergy 4 system. To obtain %-viability, A490 values were corrected by blank subtraction, normalized to 100%-viability control, and averaged. Average %-viabilities were plotted against drug dosages to obtain dose-response curves. […] For adherent cell lines, the MTS IC50 assays were conducted the same way as for suspension cell lines except for cell plating and drug treatment. For cell plating, 50 μL of 2000 cells were plated in triplicates to a 96-well tissue culture plate. Cells were allowed sufficient time to become adherent. Serial-diluted drug solutions were made the same way as in the MTS IC50 assays. To set up treatments, drug solutions were mixed with media to two-fold of the final concentrations, and 50 μL of such drug-media mix was then added to 50 μL of plated cells.

[3] = test system: DU-145 (Prostate); experiment: NCI-60 cytotoxicity assay; format: cell-based, human; details: Homo sapiens; DU-145 prostate; 48 h, sulforhodamine B; read-out: Comparative Cytotoxicity GI50, Prostate DU-145
Experimental: (§1) The antiproliferative activities of the indenoisquinoline compounds are determined in the NCI-60 cancer cell lines of the National Cancer Institute Developmental Therapeutics Program (NCI-DTP). […] Cancer cells are incubated with the test compounds at five concentrations ranging from 100 μM to 10 nM for 48 h. After the treated cancer cells are stained with sulforhodamine B dye, the percentage growth is plotted as a function of the common logarithm of the tested compound concentration. […] The approximate average of GI50 values across the entire panel of NCI-60 cancer cell lines for each compound is recorded as the MGM value.
(§2) NCI-60 Cytotoxicity Assay. Compounds were submitted to the National Cancer Institute Developmental Therapeutic Program to determine their growth-inhibitory potentials in NCI-60 cell lines. All compounds satisfied the pre-screening proceeded into the 5-dose cell viability assay, in which cells were treated for 48 h at 5 dosages ranging from 100 μM to 10 nM.

[4] = test system: HCT-116 (Colon); experiment: NCI-60 cytotoxicity assay; format: cell-based, human; details: Homo sapiens; HCT-116 colon; 48 h, sulforhodamine B; read-out: Comparative Cytotoxicity GI50, Colon HCT-116
Experimental: as §1, §2

[5] = test system: HOP-62 (Lung); experiment: NCI-60 cytotoxicity assay; format: cell-based, human; details: Homo sapiens; HOP-62 lung; 48 h, sulforhodamine B; read-out: Comparative Cytotoxicity GI50, Lung HOP-62
Experimental: as §1, §2

[6] = test system: MCF7 (Breast); experiment: NCI-60 cytotoxicity assay; format: cell-based, human; details: Homo sapiens; MCF7 breast; 48 h, sulforhodamine B; read-out: Comparative Cytotoxicity GI50, Breast MCE7
Experimental: as §1, §2

[7] = test system: OVCAR-3 (Ovarian); experiment: NCI-60 cytotoxicity assay; format: cell-based, human; details: Homo sapiens; OVCAR-3 ovarian; 48 h, sulforhodamine B; read-out: Comparative Cytotoxicity GI50, Ovarian OVCAR-3
Experimental: as §1, §2

[8] = test system: SN12C (Renal); experiment: NCI-60 cytotoxicity assay; format: cell-based, human; details: Homo sapiens; SN12C renal; 48 h, sulforhodamine B; read-out: Comparative Cytotoxicity GI50, Renal SN12C
Experimental: as §1, §2

[9] = test system: UACC-62 (Melanoma); experiment: NCI-60 cytotoxicity assay; format: cell-based, human; details: Homo sapiens; UACC-62 melanoma; 48 h, sulforhodamine B; read-out: Comparative Cytotoxicity GI50, Melanoma UACC-62
Experimental: as §1, §2

[10] = test system: SF-539 (CNS); experiment: NCI-60 cytotoxicity assay; format: cell-based; details: Homo sapiens; SF-539 CNS; 48 h, sulforhodamine B; read-out: Comparative Cytotoxicity GI50, CNS SF-539
Experimental: as §1, §2

[11] = test system: NCI-60 cancer cell lines; experiment: NCI-60 cytotoxicity assay, MGM; format: cell-based; details: Homo sapiens; entire panel of NCI-60 cancer cell lines; read-out: MGM (approximate average of GI50 values across the NCI-60 panel)
Experimental: as §1, §2

| Kd [1] | IC50 [2] | Compound | GI50 [3] | GI50 [4] | GI50 [5] | GI50 [6] | GI50 [7] | GI50 [8] | GI50 [9] | GI50 [10] | GI50 [11] |
| --- | --- | --- | --- | --- | --- | --- | --- | --- | --- | --- | --- |
| 0.055 µM | 1.98 µM | COc1cc2c3c(n(CCCN4CCC[C@H]4C(N)=O)c(=O)c2cc1OC)-c1nc2c(cc1C3=O)OCO2 [G106, (S)-1-(3-(2,3-dimethoxy-5,12-dioxo-5,12-dihydro-6H-[1,3]dioxolo [4″,5″:5′,6′]pyrido[3′,2′:4,5]cyclopenta[1,2-c]isoquinolin-6-yl)propyl)pyrrolidine-2-carboxamide] | – | – | – | – | – | – | – | – | – |
| – | – | CCNCCCn1c2c(c3cc(OC)c(OC)cc3c1=O)C(=O)c1cc(OC)cnc1-2 [A9] | 2.16 µM | 0.42 µM | 0.32 µM | 0.16 µM | 3.6 µM | 1.44 µM | 0.7 µM | 0.8 µM | 1.54 µM |
| – | – | COc1cnc2c(c1)C(=O)c1c-2n(CCCNC(C)C)c(=O)c2cc(OC)c(OC)cc12 [A11] | 1.27 µM | 1.02 µM | 0.7 µM | 0.22 µM | 8.99 µM | 4.19 µM | 2.43 µM | 1.36 µM | 2.34 µM |
| – | – | COc1cc2c3c(n(CCCNC4CCCCC4)c(=O)c2cc1OC)-c1cc2c(cc1C3=O)OCO2 [A7] | 1.84 µM | 1.32 µM | 15.9 µM | 1.06 µM | 11 µM | 18.6 µM | 28.4 µM | 7.74 µM | 6.02 µM |
| – | – | COc1cnc2c(c1)C(=O)c1c-2n(CCCNCC2CC2)c(=O)c2cc(OC)c(OC)cc12 [A10] | 0.96 µM | 0.4 µM | 0.67 µM | 0.16 µM | 1.82 µM | 0.44 µM | 0.84 µM | 1 µM | 0.86 µM |
